# According to ChEMBL document CHEMBL5537115, “New broad-spectrum and potent antibacterial agents with dual-targeting mechanism: Promoting FtsZ polymerization and disrupting bacterial membranes” (Eur J Med Chem, 2024):
# Activity calls are given as the source filed them. No cut-off for these calls is given here.
# Columns and labels:
# [1] = tested on: Escherichia coli; assay: Antibacterial activity against penicillin-susceptible Escherichia coli ATCC25922 assessed as bacterial growth inhibition incubated for 20 hrs by CLSI based broth microdilution method; type: functional
# [2] = tested on: Streptococcus pyogenes; assay: Antibacterial activity against erythromycin-susceptible Streptococcus pyogenes 1 assessed as bacterial growth inhibition incubated for 20 hrs by CLSI based broth microdilution method; type: functional
# [3] = tested on: Bacillus subtilis; assay: Induction of morphological change in Bacillus subtilis ATCC9372 assessed as increase in cell length at 0.5 times MIC by phase contrast microscopy; type: functional, organism-based
# [4] = tested on: Escherichia coli; assay: Antibacterial activity against wild-type Escherichia coli BW25113 assessed as bacterial growth inhibition incubated for 20 hrs by CLSI based broth microdilution method; type: functional
# [5] = molecular target: T1, Cell division protein FtsZ (Bacillus subtilis) (UniProt A5Z1V5); assay: Induction of FtsZ polymerization in Bacillus subtilis preincubated for 10 mins followed by GTP addition measured upto 30 mins by absorbance based assay; conditions: dose 2.5-10 µg/ml, time 40.0 min
# T1 sequence (whole entry): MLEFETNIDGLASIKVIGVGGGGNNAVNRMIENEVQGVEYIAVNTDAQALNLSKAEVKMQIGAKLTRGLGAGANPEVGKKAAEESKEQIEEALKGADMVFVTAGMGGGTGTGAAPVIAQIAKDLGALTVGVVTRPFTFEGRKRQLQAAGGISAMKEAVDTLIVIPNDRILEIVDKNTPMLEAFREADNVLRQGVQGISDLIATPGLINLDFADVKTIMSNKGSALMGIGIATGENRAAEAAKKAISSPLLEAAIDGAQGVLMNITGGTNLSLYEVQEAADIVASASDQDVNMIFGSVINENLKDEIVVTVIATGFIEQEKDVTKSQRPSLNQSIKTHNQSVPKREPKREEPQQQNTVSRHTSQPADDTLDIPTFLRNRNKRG
# [6] = tested on: Staphylococcus aureus; assay: Disruption of inner membrane in Staphylococcus aureus ATCC25923 by PI staining based analysis; type: functional, organism-based; conditions: time 12.0 min, TDE = time-dependent effect
# [7] = tested on: Staphylococcus aureus; assay: Inhibition of biofilm formation of Staphylococcus aureus ATCC25923 incubated for 20 hrs by crystal violet staining based analysis; type: functional, organism-based
# [8] = tested on: Bacillus subtilis; assay: Antibacterial activity against penicillin-susceptible Bacillus subtilis ATCC9372 incubated for 18 to 24 hrs; type: functional; conditions: time 18-24 hrs
# [9] = tested on: Staphylococcus aureus; assay: Induction of morphological change in Staphylococcus aureus ATCC25923 assessed as loss of bacterial membrane integrity at 16 times MIC incubated for 2 hrs by TEM analysis; type: functional, organism-based
# [10] = tested on: Staphylococcus aureus; assay: Induction of membrane potential depolarization in Staphylococcus aureus ATCC25923 measured after 20 mins by diSC35 dye based spectroscopy; type: functional, organism-based
# [11] = tested on: Staphylococcus aureus; assay: Inhibition of biofilm formation of Staphylococcus aureus ATCC25923 at 0.5 ug/ml incubated for 20 hrs by crystal violet staining based analysis relative to control; type: functional
# [12] = tested on: Streptococcus pyogenes; assay: Antibacterial activity against erythromycin-resistant Streptococcus pyogenes 2 clinical isolate assessed as bacterial growth inhibition incubated for 20 hrs by CLSI based broth microdilution method; type: functional
# [13] = tested on: Staphylococcus aureus; assay: Antibacterial activity against penicillin-resistant Staphylococcus aureus ATCC31007 assessed as bacterial growth inhibition incubated for 20 hrs by CLSI based broth microdilution method; type: functional
# [14] = Hemolytic activity in mouse erythrocytes at 32 ug/ml incubated for 1 hr by absorbance based assay; type: toxicity, cell-based, Erythrocyte; conditions: at 32 µg/mL, read-out: Activity
# [15] = tested on: Bacillus subtilis; assay: Antibacterial activity against penicillin-susceptible Bacillus subtilis ATCC9372 assessed as bacterial growth inhibition incubated for 20 hrs by CLSI based broth microdilution method; type: functional
# [16] = tested on: Enterococcus faecium; assay: Antibacterial activity against vancomycin-resistant Enterococcus faecium ATCC51559 assessed as bacterial growth inhibition incubated for 20 hrs by CLSI based broth microdilution method; type: functional
# [17] = tested on: Staphylococcus aureus; assay: Selectivity ratio of MBC for Staphylococcus aureus clinical isolate to MIC for Staphylococcus aureus clinical isolate; type: functional
# [18] = tested on: Staphylococcus aureus; assay: Antibacterial activity against erythromycin-susceptible Staphylococcus aureus ATCC25923 assessed as bacterial growth inhibition incubated for 20 hrs by CLSI based broth microdilution method; type: functional
# [19] = tested on: Staphylococcus aureus; assay: Antibacterial activity against Staphylococcus aureus clinical isolate assessed as bacterial growth inhibition incubated for 20 hrs by CLSI based broth microdilution method; type: functional
# [20] = tested on: Enterococcus faecium; assay: Antibacterial activity against vancomycin-susceptible Enterococcus faecium ATCC19434 assessed as bacterial growth inhibition incubated for 20 hrs by CLSI based broth microdilution method; type: functional
# [21] = molecular target: T1, Cell division protein FtsZ (Bacillus subtilis); assay: Induction of FtsZ polymerization in Bacillus subtilis at 2.5 to 10 ug/ml preincubated with compound followed by GTP addition by absorbance based assay; conditions: dose 2.5-10 µg/ml, time 40.0 min, TDE = time-dependent effect
# [22] = tested on: Staphylococcus aureus; assay: Antibacterial activity against methicillin-resistant Staphylococcus aureus ATCC43300 incubated for 18 to 20 hrs; type: functional; conditions: time 18-20 hrs
# [23] = tested on: Acinetobacter baumannii; assay: Selectivity ratio of MBC for Acinetobacter baumannii ATCC19606 to MIC for Acinetobacter baumannii ATCC19606; type: functional
# [24] = tested on: Staphylococcus epidermidis; assay: Antibacterial activity against penicillin-resistant Staphylococcus epidermidis clinical isolate assessed as bacterial growth inhibition incubated for 20 hrs by CLSI based broth microdilution method; type: functional
# [25] = tested on: Acinetobacter baumannii; assay: Antibacterial activity against Acinetobacter baumannii ATCC19606 incubated for 18 to 24 hrs; type: functional; conditions: time 18-24 hrs
# [26] = tested on: Staphylococcus aureus; assay: Antibacterial activity against erythromycin-susceptible Staphylococcus aureus ATCC25923 incubated for 18 to 24 hrs; type: functional; conditions: time 18-24 hrs
# [27] = tested on: Bacillus pumilus; assay: Antibacterial activity against penicillin-susceptible Bacillus pumilus CMCC63202 assessed as bacterial growth inhibition incubated for 20 hrs by CLSI based broth microdilution method; type: functional
# [28] = tested on: Staphylococcus aureus; assay: Selectivity ratio of MBC for erythromycin-susceptible Staphylococcus aureus ATCC25923 to MIC for erythromycin-susceptible Staphylococcus aureus ATCC25923; type: functional
# [29] = Hemolytic activity in mouse erythrocytes at 16 ug/ml incubated for 1 hr by absorbance based assay; type: toxicity, cell-based, Erythrocyte; conditions: at 16 µg/mL, read-out: Activity
# [30] = tested on: Staphylococcus aureus; assay: Induction of morphological change in Staphylococcus aureus ATCC25923 assessed as leakage of cell contents at 16 times MIC incubated for 2 hrs by TEM analysis; type: functional, organism-based
# [31] = tested on: Staphylococcus aureus; assay: Antibacterial activity against Staphylococcus aureus clinical isolate incubated for 18 to 24 hrs; type: functional; conditions: time 18-24 hrs
# [32] = tested on: Staphylococcus aureus; assay: Induction of resistance development in Staphylococcus aureus ATCC25923 assessed as fold increase in MIC at 0.5 times MIC measured after 32 days by multi-passage resistance assay relative to control; type: functional; conditions: time 32.0 day
# [33] = tested on: Bacillus subtilis; assay: Selectivity ratio of MBC for penicillin-susceptible Bacillus subtilis ATCC9372 to MIC for penicillin-susceptible Bacillus subtilis ATCC9372; type: functional
# [34] = tested on: Staphylococcus aureus; assay: Disruption of inner membrane in Staphylococcus aureus ATCC25923 measured after 12 mins by PI staining based analysis; type: functional, organism-based
# [35] = tested on: Enterococcus faecalis; assay: Antibacterial activity against vancomycin-resistant Enterococcus faecalis ATCC51299 assessed as bacterial growth inhibition incubated for 20 hrs by CLSI based broth microdilution method; type: functional
# [36] = tested on: Klebsiella pneumoniae; assay: Antibacterial activity against Klebsiella pneumoniae ATCC BAA-1902 assessed as bacterial growth inhibition incubated for 20 hrs by CLSI based broth microdilution method; type: functional
# [37] = tested on: Enterococcus faecalis; assay: Antibacterial activity against vancomycin-susceptible Enterococcus faecalis ATCC29212 assessed as bacterial growth inhibition incubated for 20 hrs by CLSI based broth microdilution method; type: functional
# [38] = molecular target: T1, Cell division protein FtsZ (Bacillus subtilis); assay: Induction of FtsZ polymerization in Bacillus subtilis assessed as bundling of FtsZ protofilaments at 10 ug/ml preincubated for 15 mins followed by GTP addition measured after 10 mins by TEM analysis; conditions: dose 10.0 µg/ml, time 25.0 min
# [39] = tested on: Staphylococcus aureus; assay: Selectivity ratio of MBC for methicillin-resistant Staphylococcus aureus ATCC43300 to MIC for methicillin-resistant Staphylococcus aureus ATCC43300; type: functional
# [40] = tested on: Acinetobacter baumannii; assay: Antibacterial activity against Acinetobacter baumannii ATCC19606 assessed as bacterial growth inhibition incubated for 20 hrs by CLSI based broth microdilution method; type: functional
# [41] = tested on: Staphylococcus aureus; assay: Antibacterial activity against methicillin-resistant Staphylococcus aureus ATCC43300 assessed as bacterial growth inhibition incubated for 20 hrs by CLSI based broth microdilution method; type: functional
# [42] = Hemolytic activity in mouse erythrocytes at 8 ug/ml incubated for 1 hr by absorbance based assay; type: toxicity, cell-based, Erythrocyte; conditions: at 8 µg/mL, read-out: Activity
# [43] = tested on: Escherichia coli; assay: Disruption of inner membrane in Escherichia coli ATCC25922 by PI staining based analysis; type: functional, organism-based; conditions: time 12.0 min, TDE = time-dependent effect
# [44] = tested on: Escherichia coli; assay: Disruption of outer membrane in Escherichia coli ATCC25922 measured after 10 mins by NPN dye based analysis; type: functional, organism-based; conditions: dose 4-16 µg/ml
# [45] = tested on: Escherichia coli; assay: Disruption of inner membrane in Escherichia coli ATCC25922 measured after 12 mins by PI staining based analysis; type: functional, organism-based
# [46] = tested on: Escherichia coli; assay: Induction of membrane potential depolarization in Escherichia coli ATCC25922 measured after 20 mins by diSC35 dye based spectroscopy; type: functional, organism-based
# [47] = tested on: Staphylococcus aureus; assay: Antibacterial activity against Staphylococcus aureus ATCC25923 infected in Kunming mouse model assessed as bacterial growth reduction at 25 mg/kg, ip; type: functional, organism-based
compound,measurement,setting,value
C[n+]1cc(-c2ccccc2)c(/C=C/c2ccc(N3CCCC3)cc2)cc1-c1ccc(C(C)(C)C)cc1.[I-],MIC,[1],8 µg/mL
same,MIC,[2],0.5 µg/mL
same,Activity,[3],Active
same,MIC,[4],8 µg/mL
same,Activity,[5],Dose-Dependent Effect
same,Activity,[6],Tde
same,inhibition,[7],Dose-Dependent Effect
same,MBC,[8],0.5 µg/mL
same,Activity,[9],Active
same,Activity,[10],Dose-Dependent Effect
same,inhibition at 0.5 µg/mL,[11],59.1%
same,MIC,[12],1 µg/mL
same,MIC,[13],0.25 µg/mL
same,"hemolysis at 1 h, 32 ug/ml",[14],13.7%
same,MIC,[15],0.5 µg/mL
same,MIC,[16],2 µg/mL
same,Ratio,[17],1
same,MIC,[18],0.062 µg/mL
same,MIC,[19],0.5 µg/mL
same,MIC,[20],2 µg/mL
same,Activity,[21],Tde
same,MBC,[22],1 µg/mL
same,Ratio,[23],2
same,MIC,[24],1 µg/mL
same,MBC,[25],2 µg/mL
same,MBC,[26],1 µg/mL
same,MIC,[27],0.062 µg/mL
same,Ratio,[28],8
same,"hemolysis at 1 h, 16 ug/ml",[29],4.65%
same,Activity,[30],Active
same,MBC,[31],0.5 µg/mL
same,fold change (FC),[32],2
same,Ratio,[33],1
same,Activity,[34],Dose-Dependent Effect
same,MIC,[35],2 µg/mL
same,MIC,[36],16 µg/mL
same,MIC,[37],0.5 µg/mL
same,Activity,[38],Active
same,Ratio,[39],2
same,MIC,[40],1 µg/mL
same,MIC,[41],0.5 µg/mL
Cc1ccccc1-c1c[n+](C)c(-c2ccc(C(C)(C)C)cc2)cc1/C=C/c1ccc(C(C)(C)C)cc1.[I-],"hemolysis at 1 h, 8 ug/ml",[42],8.29%
same,MIC,[1],4 µg/mL
same,MIC,[2],2 µg/mL
same,Activity,[3],Active
same,MIC,[4],2 µg/mL
same,Activity,[5],Dose-Dependent Effect
same,Activity,[6],Tde
same,inhibition,[7],Dose-Dependent Effect
same,MBC,[8],4 µg/mL
same,Activity,[9],Active
same,Activity,[10],Dose-Dependent Effect
same,inhibition at 0.5 µg/mL,[11],28.8%
same,MIC,[12],2 µg/mL
same,MIC,[13],1 µg/mL
same,MIC,[15],0.125 µg/mL
same,MIC,[16],0.5 µg/mL
same,Ratio,[17],2
same,Activity,[43],Tde
same,MIC,[18],0.125 µg/mL
same,MIC,[19],0.25 µg/mL
same,MIC,[20],0.125 µg/mL
same,Activity,[21],Tde
same,MBC,[22],0.25 µg/mL
same,Ratio,[23],4
same,Activity,[44],Dose-Dependent Effect
same,MIC,[24],0.5 µg/mL
same,MBC,[25],2 µg/mL
same,MBC,[26],0.5 µg/mL
same,Activity,[45],Dose-Dependent Effect
same,MIC,[27],0.5 µg/mL
same,Ratio,[28],4
same,"hemolysis at 1 h, 16 ug/ml",[29],18.9%
same,Activity,[30],Active
same,MBC,[31],0.5 µg/mL
same,fold change (FC),[32],2
same,Ratio,[33],32
same,Activity,[34],Dose-Dependent Effect
same,MIC,[35],0.25 µg/mL
same,Activity,[46],Dose-Dependent Effect
same,MIC,[36],4 µg/mL
same,MIC,[37],1 µg/mL
same,Activity,[38],Active
same,Ratio,[39],1
same,MIC,[40],0.5 µg/mL
same,Activity,[47],Active
same,MIC,[41],0.25 µg/mL
